From paper PMC9995496, “A screen for MeCP2-TBL1 interaction inhibitors using a luminescence-based assay” (Scientific Reports, 2023)
Counter-ions that a name gives are not always drawn. Like-named read-outs stand apart in the source and are kept apart here.

Test system: PRKACA-PRKAR2A interaction (SmBiT-PRKACA / LgBiT-PRKAR2A), protein kinase A
Parameters: NanoLuc complementation counter-screen in cell extract, PRKACA with PRKAR2A, loss of luminescence, detects NanoLuc interference
Conditions: 0.5 h, 20 µM, inhibitor
[1] = counter-screen for NanoLuc interference, Inh (PKA)
[2] = counter-screen for NanoLuc interference

Row | Compound | Inh (PKA) [2] | other results
1 | C[C@H]1c2cccc(O)c2C(=O)C2=C(O)[C@]3(O)C(=O)C(C(N)=O)=C(O)[C@@H](N(C)C)[C@@H]3[C@@H](O)[C@@H]21 [UM0142036:01, Doxycycline HCl] | – | Inh (PKA) [1]: 1.035%
2 | Nc1nc(=O)n([C@@H]2CS[C@H](CO)O2)cc1F [UM0142037:01, Emtricitabine] | -0.284% | –
3 | C[C@]12CC[C@@H]3c4ccc(O)cc4CC[C@H]3[C@@H]1CCC2=O [UM0142038:01, Estrone] | 7.468% | –
4 | Nc1ccn([C@@H]2O[C@H](CO)[C@@H](O)C2(F)F)c(=O)n1 [UM0142041:01, Gemcitabine] | – | Inh (PKA) [1]: -0.03613%
5 | CC(C)Cc1ccc(C(C)C(=O)O)cc1 (centres unmarked) [UM0142046:01, Ibuprofen] | 3.005% | –
6 | CCOC(=O)[C@H](CCc1ccccc1)N[C@@H](C)C(=O)N1C(=O)N(C)C[C@H]1C(=O)O [UM0142047:01, Imidapril HCl] | 2.302% | –
7 | COC(=O)C1=C(C)NC(C)=C(C(=O)OC(C)C)C1c1cccc2nonc12 (centres unmarked) [UM0142050:01, Isradipine (Dynacirc)] | 94.06% | –
8 | COC(=O)C1=C(C#N)NC(C)=C(C(=O)OC(C)C)C1c1cccc([N+](=O)[O-])c1 (centres unmarked) [UM0142051:01, Nilvadipine] | 88.81% | –
9 | Nc1ccn([C@@H]2CS[C@H](CO)O2)c(=O)n1 [UM0142052:01, Lamivudine] | -0.4847% | –
10 | Cn1cc(-c2cnn3c(N)c(Br)c([C@@H]4CCCNC4)nc23)cn1 [UM0142059:01, MK-8776 (SCH-900776)] | 4.838% | –
11 | COCCOC(=O)C1=C(C)NC(C)=C(C(=O)OC(C)C)C1c1cccc([N+](=O)[O-])c1 (centres unmarked) [UM0142061:01, Nimodipine] | 89.11% | –
12 | CO[C@H]1/C=C/O[C@@]2(C)Oc3c(C)c(O)c4c(O)c(c5c(nc6cc(C)ccn65)c4c3C2=O)NC(=O)/C(C)=C\C=C\[C@H](C)[C@H](O)[C@@H](C)[C@@H](O)[C@@H](C)[C@H](OC(C)=O)[C@@H]1C [UM0142068:01, Rifaximin (Xifaxan)] | 35.34% | –
13 | CCN(C)C(=O)Oc1cccc([C@H](C)N(C)C)c1 [UM0142069:01, Rivastigmine Tartrate] | – | Inh (PKA) [1]: 1.4%
14 | CC(C)c1nc(N(C)S(C)(=O)=O)nc(-c2ccc(F)cc2)c1/C=C/[C@@H](O)C[C@@H](O)CC(=O)O [UM0142070:01, Rosuvastatin Calcium] | 4.68% | –
15 | CN1CCN(c2nc(C3=C(c4c[nH]c5ccccc45)C(=O)NC3=O)c3ccccc3n2)CC1 [UM0142072:01, Sotrastaurin (AEB071)] | 65.03% | –
16 | Cc1cn([C@@H]2C[C@@H](O)[C@H](CO)O2)c(=O)[nH]c1=O [UM0142074:01, Telbivudine] | -0.434% | –
17 | COc1cc([C@@H]2c3cc4c(cc3[C@@H](O[C@@H]3O[C@@H]5CO[C@@H](c6cccs6)O[C@H]5[C@H](O)[C@H]3O)[C@H]3COC(=O)[C@H]23)OCO4)cc(OC)c1O [UM0142075:01, Teniposide] | 6.975% | –
18 | CSc1ccc2c(c1)N(CCC1CCCCN1C)c1ccccc1S2 (centres unmarked) [UM0142076:01, Thioridazine HCl] | 11.27% | –
19 | COc1cc(Nc2ncc(F)c(Nc3ccc4c(n3)NC(=O)C(C)(C)O4)n2)cc(OC)c1OC [UM0142079:01, R406] | – | Inh (PKA) [1]: 54.73%
20 | CCCCCCCCc1ccc(CCC(N)(CO)CO)cc1 [UM0142081:01, Fingolimod (FTY720)] | 6.851% | –
21 | CC(C)n1nc(-c2ccc3oc(N)nc3c2)c2c(N)ncnc21 [UM0142084:01, INK 128 (MLN0128)] | 29.78% | –
22 | CC[C@@H]1C(=O)N(C)c2cnc(Nc3ccc(C(=O)N[C@H]4CC[C@H](N5CCN(CC6CC6)CC5)CC4)cc3OC)nc2N1C(C)C [UM0142089:01, BI6727 (Volasertib)] | 8.077% | –
23 | C[C@H]1CO[C@@H]2Cn3cc(C(=O)NCc4ccc(F)cc4F)c(=O)c(O)c3C(=O)N12 [UM0142091:01, GSK744 (S/GSK1265744)] | 7.532% | –
24 | Cc1ccccc1CN1C(=O)C2=C(CCN(Cc3ccccc3)C2)N2CCN=C12 [UM0142096:01, TIC10] | – | Inh (PKA): 4.346
25 | C[C@]12CC[C@H](O)CC1=CC[C@@H]1[C@@H]2CC[C@]2(C)C(n3cnc4ccccc43)=CC[C@@H]12 [UM0142098:01, TOK-001] | 15.03% | –
26 | O=C(/C=C/c1cccnc1)NCCCCC1CCN(C(=O)c2ccccc2)CC1 [UM0142102:01, FK 866 hydrochloride] | – | Inh (PKA) [1]: 0.5645%
27 | CN1CCN(c2ccc(Nc3cc(-c4cccc(-n5ccc6cc(C7CC7)cc(F)c6c5=O)c4CO)cn(C)c3=O)nc2)CC1 [UM0142104:01, RN486] | 0.8611% | –
28 | Cc1cnc(NC(=O)Nc2cc(Br)c(C)cc2OC[C@@H]2CNCCO2)cn1 [UM0142106:01, LY2603618] | 6.637% | –

Now from value to compound, other results behind:

Row | Inh (PKA) [2] | Compound | other results
29 | 29.66% | O=C1[C@H](CC[C@H](O)c2ccc(F)cc2)[C@@H](c2ccc(O)cc2)N1c1ccc(F)cc1 [UM0142039:01, Ezetimibe] | –
30 | 28.61% | CC(C(=O)O)c1ccc(-c2ccccc2)c(F)c1 (centres unmarked) [UM0142040:01, Flurbiprofen] | –
31 | 2.417% | CC(C)c1noc(N2CCC(COc3ccc(-c4ccc(S(C)(=O)=O)cc4)nc3)CC2)n1 [UM0142042:01, GSK1292263] | –
32 | 3.955% | CNC(=O)c1c(F)cccc1Nc1nc(Nc2cc3c(ccn3C(=O)CN(C)C)cc2OC)nc2[nH]ccc12 [UM0142043:01, GSK1838705A] | –
33 | 20.75% | O=C(O)Cc1cccc(OCCCN(Cc2cccc(C(F)(F)F)c2Cl)CC(c2ccccc2)c2ccccc2)c1 [UM0142045:01, GW3965 HCl] | –
34 | 6.016% | CNC(=O)c1ccc(-c2cnc3ncc(Cc4ccc5ncccc5c4)n3n2)cc1F [UM0142048:01, INCB28060] | –
35 | 2.703% | CC(O)c1cc(C(=O)N[C@@H](C)Cn2ccc(-c3ccc(C#N)c(Cl)c3)n2)n[nH]1 (some centres unmarked) [UM0142049:01, ODM-201] | –
36 | 1.122% | CCN(C(=O)c1c(O)c2c(Cl)cccc2n(C)c1=O)c1ccccc1 [UM0142053:01, Laquinimod (ABR-215062)] | –
37 | -0.08675% | c1ccc(-c2nn3c(c2-c2ccnc4cc(OCCN5CCOCC5)ccc24)CCC3)nc1 [UM0142054:01, LY2109761] | –
38 | 5.898% | NC1=N[C@@]2(c3cc(NC(=O)c4ccc(F)cn4)ccc3F)COC[C@H]2CS1 [UM0142055:01, LY2886721] | –
39 | 3.158% | Nc1nc(CC(=O)Nc2ccc(CCNC[C@H](O)c3ccccc3)cc2)cs1 [UM0142057:01, Mirabegron (YM178)] | –
40 | 13.67% | CN(C[C@@H]1COCCO1)S(=O)(=O)Nc1ccc2ccc3ncc(-c4cnn(C)c4)cc3c(=O)c2c1 [UM0142058:01, MK-2461] | –
41 | 3.121% | Cc1ccnc2c1NC(=O)c1cccnc1N2C1CC1 [UM0142060:01, Nevirapine] | –
42 | 19.52% | COc1ccc(-c2ccc3ncc4c(c3c2)n(-c2ccc(N3CCNCC3)c(C(F)(F)F)c2)c(=O)n4C)cn1 [UM0142062:01, NVP-BGT226] | –
43 | 13.19% | Cn1cc(-c2ccc3ncc(Cc4ccc5ncccc5c4)n3n2)cn1 [UM0142063:01, NVP-BVU972] | –
44 | 7.804% | COc1ccc(-c2cc3c(C)nc(N)nc3n([C@H]3CC[C@H](OCCO)CC3)c2=O)cn1 [UM0142064:01, PF-04691502] | –
45 | 8.149% | CNC(=O)c1nn(C)c2c1C(C)(C)Cc1cnc(Nc3ccc(N4CCN(C)CC4)cc3)nc1-2 [UM0142065:01, PHA-848125] | –

Row | Inh (PKA) [2] | Compound | other results
46 | 41.78% | O=C(O)C[C@H](O)C[C@H](O)/C=C/c1c(C2CC2)nc2ccccc2c1-c1ccc(F)cc1 [UM0142066:01, Pitavastatin Calcium] | –
47 | 0.4885% | CCn1nnc2c(N3CCOCC3)nc(-c3ccc(NC(=O)Nc4ccc(C(=O)N5CCN(C)CC5)cc4)cc3)nc21 [UM0142067:01, PKI-402] | –
48 | 28.39% | CC(C)(O)CC(=O)NCCn1ccc2ncnc(Nc3ccc(Oc4cccc(C(F)(F)F)c4)c(Cl)c3)c21 [UM0142073:01, TAK-285] | –
49 | 2.454% | CN1CCc2c(c3ccccc3n2Cc2ccc(C(=O)NO)cc2)C1 [UM0142080:01, Tubastatin A HCl] | –
50 | 10.72% | CNC(=O)c1cc(COc2nnc(Nc3ccc(Cl)cc3)c3ccoc23)ccn1 [UM0142083:01, Telatinib (BAY 57-9352)] | –
51 | 9.195% | O=C(O)c1cccc(-c2noc(-c3ccccc3F)n2)c1 [UM0142085:01, PTC124 (Ataluren)] | –
52 | 39.35% | Cc1cc(C)c(Nc2ccnc(Nc3ccc(C#N)cc3)n2)c(C)c1 [UM0142086:01, Dapivirine (TMC120)] | –
53 | 7.374% | COc1ncc(-c2ccc3nccc(-c4ccnnc4)c3c2)cc1NS(=O)(=O)c1ccc(F)cc1F [UM0142087:01, GSK2126458] | –
54 | 15.32% | CNC(=O)c1ccccc1Nc1nc(Nc2ccc(N3CCOCC3)cc2OC)ncc1Cl [UM0142088:01, TAE226 (NVP-TAE226)] | –
55 | 25.51% | CC(C)[C@H](CO)Nc1nc(Nc2ccc(C(=O)O)c(Cl)c2)c2ncn(C(C)C)c2n1 [UM0142090:01, Purvalanol B] | –
56 | 5.667% | N#Cc1ccc(OC2CCC(NC(=O)CCSc3nc4ccccc4c(=O)[nH]3)CC2)cc1 (centres unmarked) [UM0142092:01, Tankyrase Inhibitors (TNKS) 49] | –
57 | 19.6% | Cc1[nH]nc2ccc(-c3cncc(OC[C@@H](N)Cc4ccccc4)c3)cc12 [UM0142094:01, A-674563] | –
58 | 38.25% | NC1(Cc2ccc(Cl)cc2)CCN(c2ncnc3[nH]ccc23)CC1 [UM0142095:01, CCT128930] | –
59 | 51% | COc1cc(N2CCC(N)CC2)ccc1Nc1ncc(Cl)c(-c2c[nH]c3ccccc23)n1 [UM0142097:01, AZD-3463] | –
60 | 35.68% | O=C(NC(NC(=S)Nc1ccc(F)c([N+](=O)[O-])c1)C(Cl)(Cl)Cl)C(c1ccccc1)c1ccccc1 (centres unmarked) [UM0142099:01, CGK733] | –
61 | 17.03% | O=C(NCc1ccc(Oc2ccccc2)cc1)c1nc(-c2cc(Br)c(O)c(Br)c2)no1 [UM0142105:01, IOWH-032] | –
62 | 4.692% | CN1CC[C@H](c2c(O)cc(O)c3c(=O)cc(-c4ccccc4Cl)oc23)[C@H](O)C1 [UM0142107:01, Flavopiridol hydrochloride] | –
